Laboratory results reported in ChEMBL document CHEMBL5303573, “Mapping human microbiome drug metabolism by gut bacteria and their genes” (Nature, 2019).

How the values were obtained:
Type in all cases: ADME
Design in all cases: dose 2 uM
Settings in all cases: 2 µM
[1] = target: T1, SGNH hydrolase-type esterase domain-containing protein (Phocaeicola dorei, UniProt B6W293); test: (§1) The drug is tested on Bacteroides dorei strain: DSM17855 for biotransformation. The drug concentrations were measured before and after a 12-h incubation by liquid-chromatography-coupled mass spectrometry (LC–MS)
T1 sequence (B6W293 whole entry): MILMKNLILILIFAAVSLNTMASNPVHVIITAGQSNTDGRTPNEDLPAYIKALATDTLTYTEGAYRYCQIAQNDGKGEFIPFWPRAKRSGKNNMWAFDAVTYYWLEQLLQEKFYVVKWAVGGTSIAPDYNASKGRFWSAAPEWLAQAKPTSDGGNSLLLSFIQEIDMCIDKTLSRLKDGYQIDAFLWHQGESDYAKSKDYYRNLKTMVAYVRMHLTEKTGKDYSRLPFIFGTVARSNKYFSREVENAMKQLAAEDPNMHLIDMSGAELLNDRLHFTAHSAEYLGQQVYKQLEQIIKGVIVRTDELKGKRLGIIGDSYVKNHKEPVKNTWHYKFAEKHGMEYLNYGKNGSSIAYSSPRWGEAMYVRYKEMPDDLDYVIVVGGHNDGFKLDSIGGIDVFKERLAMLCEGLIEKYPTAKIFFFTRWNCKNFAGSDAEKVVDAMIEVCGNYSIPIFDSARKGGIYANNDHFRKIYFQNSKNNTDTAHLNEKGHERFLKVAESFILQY

[2] = target: T2, Steroid 5-alpha reductase C-terminal domain-containing protein (Phocaeicola dorei, UniProt B6W0N3); test: as §1
T2 sequence (B6W0N3 whole entry): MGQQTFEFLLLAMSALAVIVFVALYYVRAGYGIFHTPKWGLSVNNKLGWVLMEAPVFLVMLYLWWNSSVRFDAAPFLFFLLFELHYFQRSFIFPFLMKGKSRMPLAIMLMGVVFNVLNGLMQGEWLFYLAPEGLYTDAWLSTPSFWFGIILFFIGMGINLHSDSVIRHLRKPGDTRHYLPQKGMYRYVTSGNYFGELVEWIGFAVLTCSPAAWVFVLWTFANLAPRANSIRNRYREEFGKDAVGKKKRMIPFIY

[3] = target: T3, Acyltransferase 3 domain-containing protein (Phocaeicola dorei, UniProt B6W2J3); test: as §1
T3 sequence (B6W2J3 whole entry): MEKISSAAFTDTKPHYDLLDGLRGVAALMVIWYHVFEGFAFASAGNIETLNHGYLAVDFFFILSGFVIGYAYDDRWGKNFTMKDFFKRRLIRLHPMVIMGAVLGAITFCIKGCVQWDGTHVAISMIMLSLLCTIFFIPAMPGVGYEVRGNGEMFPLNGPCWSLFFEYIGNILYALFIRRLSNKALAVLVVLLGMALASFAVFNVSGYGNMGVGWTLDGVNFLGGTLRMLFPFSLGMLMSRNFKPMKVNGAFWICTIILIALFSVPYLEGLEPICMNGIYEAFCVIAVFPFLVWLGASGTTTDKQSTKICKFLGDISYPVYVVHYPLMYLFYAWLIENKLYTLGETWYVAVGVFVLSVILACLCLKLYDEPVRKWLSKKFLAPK

[4] = target: T4, Acetyl esterase (Acetylxylosidase) (Bacteroides thetaiotaomicron, UniProt Q8ABF8); test: (§2) The drug is tested on Bacteroides thetaiotaomicron strain: VPI-5482 for biotransformation. The drug concentrations were measured before and after a 12-h incubation by liquid-chromatography-coupled mass spectrometry (LC–MS)
T4 sequence (Q8ABF8 whole entry): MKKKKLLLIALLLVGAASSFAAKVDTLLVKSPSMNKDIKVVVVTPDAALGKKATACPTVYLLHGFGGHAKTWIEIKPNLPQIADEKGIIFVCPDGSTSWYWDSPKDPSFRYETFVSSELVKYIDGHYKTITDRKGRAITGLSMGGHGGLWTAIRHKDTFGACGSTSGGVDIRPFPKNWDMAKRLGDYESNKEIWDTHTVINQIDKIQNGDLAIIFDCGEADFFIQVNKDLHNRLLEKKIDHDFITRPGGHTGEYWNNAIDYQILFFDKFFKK

[5] = target: T5, Lipolytic enzyme, G-D-S-L family (Bacteroides thetaiotaomicron, UniProt Q8A0E6); test: as §2
T5 sequence (Q8A0E6 whole entry): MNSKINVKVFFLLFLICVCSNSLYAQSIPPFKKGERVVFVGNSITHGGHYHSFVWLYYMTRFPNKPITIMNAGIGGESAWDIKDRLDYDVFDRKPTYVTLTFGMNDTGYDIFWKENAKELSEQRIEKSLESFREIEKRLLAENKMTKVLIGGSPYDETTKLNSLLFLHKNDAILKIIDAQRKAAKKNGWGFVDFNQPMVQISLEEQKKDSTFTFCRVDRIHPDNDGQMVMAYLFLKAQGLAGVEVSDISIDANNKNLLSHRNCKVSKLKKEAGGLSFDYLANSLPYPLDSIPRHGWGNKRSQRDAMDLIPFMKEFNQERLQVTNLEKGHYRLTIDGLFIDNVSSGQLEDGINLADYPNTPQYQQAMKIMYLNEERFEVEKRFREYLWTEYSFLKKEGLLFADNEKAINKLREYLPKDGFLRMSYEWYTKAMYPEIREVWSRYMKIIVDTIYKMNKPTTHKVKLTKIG

[6] = target: T6, Nitroreductase-like protein (Bacteroides thetaiotaomicron, UniProt Q8AB93); test: as §2
T6 sequence (Q8AB93 whole entry): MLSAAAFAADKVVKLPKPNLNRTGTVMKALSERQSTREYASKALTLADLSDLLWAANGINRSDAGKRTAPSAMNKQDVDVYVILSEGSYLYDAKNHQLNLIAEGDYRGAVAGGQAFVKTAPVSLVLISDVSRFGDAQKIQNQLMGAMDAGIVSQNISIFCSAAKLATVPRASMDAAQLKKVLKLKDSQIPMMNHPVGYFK

[7] = target: T7, Nitroreductase (Bacteroides thetaiotaomicron, UniProt Q8A911); test: as §2
T7 sequence (Q8A911 whole entry): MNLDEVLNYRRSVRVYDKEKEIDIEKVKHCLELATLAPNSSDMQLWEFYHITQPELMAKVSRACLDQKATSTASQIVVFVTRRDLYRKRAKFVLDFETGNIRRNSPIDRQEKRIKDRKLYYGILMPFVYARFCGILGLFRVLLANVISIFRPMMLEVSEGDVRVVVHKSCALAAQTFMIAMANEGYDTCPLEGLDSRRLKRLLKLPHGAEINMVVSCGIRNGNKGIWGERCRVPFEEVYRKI

[8] = target: T8, Regulatory protein (Bacteroides thetaiotaomicron, UniProt Q8A576); test: as §2
T8 sequence (Q8A576 whole entry): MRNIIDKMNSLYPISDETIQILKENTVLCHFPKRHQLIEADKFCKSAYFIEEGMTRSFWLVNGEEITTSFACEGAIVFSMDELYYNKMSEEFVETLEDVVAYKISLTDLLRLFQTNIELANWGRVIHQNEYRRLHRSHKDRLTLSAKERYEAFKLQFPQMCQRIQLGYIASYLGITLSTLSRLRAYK

[9] = target: T9, NADH dehydrogenase/NAD(P)H nitroreductase (Bacteroides thetaiotaomicron, UniProt Q8A8L9); test: as §2
T9 sequence (Q8A8L9 whole entry): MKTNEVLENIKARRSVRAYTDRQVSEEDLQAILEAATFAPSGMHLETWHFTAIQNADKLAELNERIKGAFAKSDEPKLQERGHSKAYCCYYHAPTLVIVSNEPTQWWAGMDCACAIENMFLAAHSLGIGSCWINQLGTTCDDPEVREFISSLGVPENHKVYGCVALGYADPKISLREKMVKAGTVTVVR

Measured: Bacterial Biotransformation

C[C@@H]1CC[C@H]2[C@@H](C)C(=O)O[C@@H]3O[C@@]4(C)CC[C@@H]1[C@]32OO4 [ARTEMISININ]
Compound NOT metabolized: all assays above

Nc1ccc(/N=N/c2ccccc2)c(N)n1 [PHENAZOPYRIDINE]
Compound NOT metabolized: all assays above
